Source: PMC4301629 (PLoS ONE, 2015)

Columns and labels:
[1] = biological target: T1, α1A-AR (Homo sapiens, UniProt P35348); experiment: MAPK activation (AlphaScreen SureFire p-ERK) in α1A-AR transduced HEK-293/EBNA cells; format: cell-based; set-up: expressed in transfected cells; host or cells: HEK-293/EBNA (baculovirus transduction, NaBu induction); conditions: data not shown
T1 sequence (P35348 1-466): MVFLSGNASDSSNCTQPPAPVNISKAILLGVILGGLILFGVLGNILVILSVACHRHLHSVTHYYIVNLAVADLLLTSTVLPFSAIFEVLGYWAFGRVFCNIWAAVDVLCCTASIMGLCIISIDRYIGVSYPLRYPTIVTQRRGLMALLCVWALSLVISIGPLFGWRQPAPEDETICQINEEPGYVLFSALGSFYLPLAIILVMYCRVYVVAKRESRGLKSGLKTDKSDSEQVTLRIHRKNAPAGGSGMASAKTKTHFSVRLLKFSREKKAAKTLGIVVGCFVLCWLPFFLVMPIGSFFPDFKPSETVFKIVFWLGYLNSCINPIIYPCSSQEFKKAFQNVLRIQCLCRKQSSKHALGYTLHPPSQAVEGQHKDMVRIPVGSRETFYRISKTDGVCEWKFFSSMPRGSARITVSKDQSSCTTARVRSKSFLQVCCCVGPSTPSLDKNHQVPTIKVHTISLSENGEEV
Description: (§1) Prior to experiments, cells were transduced with baculovirus strains designed for transient expression of α1A-AR or aldehyde oxidase (negative control). This was performed by incubating cells with virus (MOI 100–150) for 3 to 4 h, followed by exchange into fresh serum free growth medium supplemented with 4 mM sodium butyrate (NaBu). Cells were grown for another 14 to 18 h and then examined for agonist-evoked responses in transient Ca^2+ release, IP accumulation or pERK activation assays. The surface receptor expression density was determined by flow cytometry via immunofluorescence labeling of an N-terminal HA epitope tag on the receptor and radioligand binding in partially purified membranes.
Graphs shown reflect either pooled or representative data (see figure legends). For concentration-response analysis, results from Ca^2+ mobilization experiments were plotted as ΔF/F0 vs. agonist concentration and fit to a sigmoidal concentration-response equation using the GraphPad Prism software package. […] For radioligand binding experiments, B max values were calculated from maximum binding using the equation B max = (SB × ([…] + [L])/[L]), where SB is the specific binding expressed as fmol per mg of membrane protein, and [L] is the ligand concentration.

[2] = system: α1A-AR; experiment: Ca2+ transient response (FLIPR, fluo3) in α1A-AR transduced HEK-293/EBNA cells; format: cell-based; conditions: α1A-AR HEK-293/EBNA; for effect of antagonist on Iso-evoked Ca2+ response: RS100329 10 nM, ICI 118551 10 nM, atenolol 1 μM
Description: as §1
(§2) Cells were resuspended in Hank’s balanced salt solution (Invitrogen) supplemented with 2 mM CaCl2, 10 mM HEPES pH 7.4, 2.5 mM probenecid, plus 1g/L each of glucose and bovine serum albumin (BSA), and seeded in poly-D-lysine coated 96-well black plates with transparent bottom (Costar) at a density of 50,000 cells/0.1 mL per well. Cells were then incubated for 1 h at 37°C with an additional 0.1 mL of buffer containing 4 μM fluo3-AM that was diluted from a stock solution containing 1 mM fluo3-AM dye in DMSO with 10% pluronic acid. After dye loading incubation, plates were washed twice with 100 μL of buffer and refilled with 100 μL of assay buffer. In experiments testing the effect of antagonists, 25 μL of buffer from wells of washed cells were replaced with 25 μL of vehicle or 4× antagonist solution. Pre-incubation of ligand with dye-loaded cells proceeded for 5–30 minutes immediately prior to measurements of agonist-evoked responses. Agonist-evoked Ca^2+ mobilization responses of cell populations were monitored at room temperature simultaneously in all wells of the assay plate using the plate-imaging fluorometric reader FLIPR (MDS Analytical Technologies, Sunnyvale, CA). […] The amplitudes of Ca^2+ transient responses are reported as ΔF/F0, or fold-change in Ca^2+ dye fluorescence relative to the baseline signal ΔF/F0 = (F-F0)/F0 +1 (where ΔF is maximal fluorescence intensity observed following agonist application, F0 = baseline fluorescence, or average intensity measured over the 10 s interval prior to agonist application). Image acquisition rates were varied from 1 Hz during the first 100 s of measurements to 0.5 Hz for the remaining time of the recording.
(§3) Graphs shown reflect either pooled or representative data (see figure legends). For concentration-response analysis, results from Ca^2+ mobilization experiments were plotted as ΔF/F0 vs. agonist concentration and fit to a sigmoidal concentration-response equation using the GraphPad Prism software package. In cases where biphasic concentration-response curves were observed data were fit to a two-site concentration-response model: F(X)=R0+(Rmax−R0)[Fr1/(1+10^X-logEC50,1)+(1−Fr1)/(1+10^X-logEC50,2)] (1) , where X is the logarithm of the agonist concentration, R0 and Rmax are respectively the response minimum and maximum; Fr1 is the response fraction attributable to receptor characterized by half effective concentration of the first response phase (EC50,1), with the reminder response attributable to the second half effective concentration (EC50,2). For radioligand binding experiments, B max values were calculated from maximum binding using the equation B max = (SB × ([…] + [L])/[L]), where SB is the specific binding expressed as fmol per mg of membrane protein, and [L] is the ligand concentration.

[3] = system: HEK293/EBNA cells; experiment: IP accumulation (IP-One HTRF) in untransduced HEK-293/EBNA cells; format: cell-based; conditions: HEK293/EBNA untransduced
[4] = biological target: T1, α1A-AR; experiment: LC-MS detection of IP1, IP2 and IP3 in α1A-AR_CHO stable cells; format: cell-based; set-up: expressed in transfected cells; conditions: α1A-AR CHO, Iso up to 1 mM
Description: (§4) After that, the medium was replaced with agonist solution in assay buffer (20 mM HEPES, 10 mM glucose, 1.8 mM CaCl2, 0.5 mM MgSO4, in HBSS 1X buffer, 50 mM LiCl) and cells were incubated at 37°C for 30 min. Stimulation was stopped by exchange of assay buffer with lysis buffer (100 μL 0.1N HCl/MeOH), and lysis proceeded for 30 min at 4°C. Cellular levels of inositol phosphates were determined using a Thermo LC-MS detection system following a published protocol. Chromatography was performed employing a BioBasic column AX (50 × 2.1 mm, Thermo). The mobile phase consisted of solvent A: 10 mM ammonium acetate, pH 6 in 30/70 acetonitrile/water, and solvent B: 1 mM ammonium acetate, pH 11 in 30/70 acetonitrile/water. A gradient solvent system was used starting with 0% solvent B, and analytes were eluted by increasing solvent B to 100% over 3 min. Each data point represents the average of triplicate determinations and each experiment was performed at least three times independently.
IP1, IP2, and IP3 levels were determined via LC-MS. Plots are representative of three independent experiments with each data point being the average of triplicates.

[5] = biological target: T1, α1A-AR; experiment: LC-MS detection of IP1, IP2 and IP3 in α1A-AR transduced HEK-293/EBNA cells; format: cell-based; set-up: expressed in transfected cells; host or cells: HEK-293/EBNA (baculovirus transduction, NaBu induction); conditions: Iso up to 10 mM
Description: as §4, with “Virally transduced HEK-293/EBNA cells were resuspended in growth medium and seeded in poly-D-lysine coated 96-well black plates at a density of 100,000 cells/0.1 mL per well, Cells were allowed to attach for 2 hours at 37°C in a humidified atmosphere of 95% air and 5% CO2. After” for “After”

[6] = biological target: T1, α1A-AR; experiment: Ca2+ transient response (FLIPR, fluo3) in α1A-AR transduced HEK-293/EBNA cells; format: cell-based; set-up: expressed in transfected cells; host or cells: HEK-293/EBNA (baculovirus transduction, NaBu induction); conditions: 100 nM NE, α1A-AR_HEK-293/EBNA
Description: as §1, §2, §3

[7] = biological target: T1, α1A-AR; experiment: IP accumulation (IP-One HTRF) in α1A-AR transduced HEK-293/EBNA cells; format: cell-based; set-up: expressed in transfected cells; host or cells: HEK-293/EBNA (baculovirus transduction, NaBu induction); conditions: 10 nM antagonist preincubation; large rightward shift in A-61603 potency
Description: as §1
After 10–20 minutes, 10 μL of agonist was added followed by incubation for 5 to 30 minutes. Stimulation was stopped by addition of lysis buffer. Second messenger levels were determined using a homogeneous immunoassay method with time-resolved FRET detection (IP-One HTRF, Cisbio International) according to protocols provided by the supplier. Sample fluorescence was measured with a Nanoscan plate reader (IOM, Berlin). Each data point represents the average of quadruplicate determinations and each experiment was performed at least two times independently.

[8] = biological target: T1, α1A-AR; experiment: Ca2+ transient response (FLIPR) in α1A-AR_CHO stable cells; format: cell-based; set-up: expressed in transfected cells; conditions: antagonist at 100 nM
Description: as §2, with “In experiments testing the effect of antagonists, 25 μL of buffer from wells of washed cells were replaced with 25 μL of vehicle or 4× antagonist solution. Pre-incubation of ligand with dye-loaded cells proceeded for 5–30 minutes immediately prior to measurements of agonist-evoked responses.” left out, “Image acquisition rates were varied from 1 Hz during the first 100 s of measurements to 0.5 Hz for the remaining time of the recording.” left out
IP1, IP2, and IP3 levels were determined via LC-MS. […]

[9] = biological target: T2, β2-AR (Homo sapiens, UniProt P07550); experiment: Ca2+ transient response (FLIPR, fluo3) in untransduced / negative control HEK-293/EBNA cells; format: cell-based; conditions: non-transduced control cells; ICI 118551 10 nM, RS100329 10 nM, atenolol 1 μM
T2 construct: HEK-293/EBNA cells are known to express β2-AR endogenously; endogenous in cells; host or cells: HEK-293/EBNA (untransduced or negative-control transduced)
T2 sequence (P07550 whole entry): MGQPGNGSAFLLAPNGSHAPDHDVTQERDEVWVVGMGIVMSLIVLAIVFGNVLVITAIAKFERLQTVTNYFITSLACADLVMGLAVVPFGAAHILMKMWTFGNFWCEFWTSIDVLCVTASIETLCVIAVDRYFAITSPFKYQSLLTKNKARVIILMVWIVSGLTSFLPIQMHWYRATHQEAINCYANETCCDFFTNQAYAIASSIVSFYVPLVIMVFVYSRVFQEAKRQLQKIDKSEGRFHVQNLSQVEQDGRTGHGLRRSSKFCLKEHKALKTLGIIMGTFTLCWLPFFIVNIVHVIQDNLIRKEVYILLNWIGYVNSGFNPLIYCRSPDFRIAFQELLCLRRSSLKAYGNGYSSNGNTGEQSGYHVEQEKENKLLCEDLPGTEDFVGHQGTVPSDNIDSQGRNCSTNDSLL
Description: as §1
Cells were resuspended in Hank’s balanced salt solution (Invitrogen) supplemented with 2 mM CaCl2, 10 mM HEPES pH 7.4, 2.5 mM probenecid, plus 1g/L each of glucose and bovine serum albumin (BSA), and seeded in poly-D-lysine coated 96-well black plates with transparent bottom (Costar) at a density of 50,000 cells/0.1 mL per well. […] Agonist-evoked Ca^2+ mobilization responses of cell populations were monitored at room temperature simultaneously in all wells of the assay plate using the plate-imaging fluorometric reader FLIPR (MDS Analytical Technologies, Sunnyvale, CA). […]

[10] = system: α1A-AR; conditions: for α1A-AR; cited from earlier work

## COc1cc2ncnc(Nc3cccc(Cl)c3)c2cc1OC [AG1478]
[1]
  effect of EGFR inhibition on Iso induced α1A-AR stimulation of ERK1/2: not affected

## Cc1ccc(OCC(O)C(C)NC(C)C)c2c1CCC2 (centres unmarked) [ICI 118551]
[2]; ICI 118551 at 10 nM
  attenuation of responses to high Iso concentrations: ~50%
[2]
  effect of antagonist on Iso-evoked Ca2+ response: abolished responses to low Iso concentrations

## NC[C@H](O)c1ccc(O)c(O)c1 [NE, norepinephrine]
[3]
  EC50 IP: BQL
[4]
  cellular concentration of inositol phosphates IP1, IP2 and IP3: concentration-dependent increases
[5]
  cellular levels of inositol phosphates IP1, IP2 and IP3: concentration-dependent increases
[6]
  time to peak response amplitude post-agonist addition: ≤ 10 s

## Cc1c[nH]c(=O)n(CCCN2CCN(c3ccccc3OCC(F)(F)F)CC2)c1=O [RS100329]
[7]
  effect of antagonist on A-61603-stimulated IP accumulation: significantly attenuated IP accumulation
[8]
  effect of antagonist pretreatment on Iso Ca2+ response: blocked
[2]
  effect of antagonist on Iso-evoked Ca2+ response: virtually complete blocking of the low potency phase
[9]
  effect of antagonist on Iso-evoked Ca2+ response: ineffective
[10]
  pKB: 9.6

## CC(C)NCC(O)COc1ccc(CC(N)=O)cc1 (centres unmarked) [atenolol]
[2]
  effect of antagonist on Iso-evoked Ca2+ response: had no effect

## CC(C)NCC(O)COc1cccc2ccccc12 (centres unmarked) [propranolol]
[8]
  effect of antagonist pretreatment on Iso Ca2+ response: insensitive
